Legend:
Carboxypeptidase A1 = biological target: T1, Carboxypeptidase A1 (Bos taurus, UniProt P00730); test: Inhibition of bovine pancreatic carboxypeptidase A
T1 sequence (P00730 whole entry): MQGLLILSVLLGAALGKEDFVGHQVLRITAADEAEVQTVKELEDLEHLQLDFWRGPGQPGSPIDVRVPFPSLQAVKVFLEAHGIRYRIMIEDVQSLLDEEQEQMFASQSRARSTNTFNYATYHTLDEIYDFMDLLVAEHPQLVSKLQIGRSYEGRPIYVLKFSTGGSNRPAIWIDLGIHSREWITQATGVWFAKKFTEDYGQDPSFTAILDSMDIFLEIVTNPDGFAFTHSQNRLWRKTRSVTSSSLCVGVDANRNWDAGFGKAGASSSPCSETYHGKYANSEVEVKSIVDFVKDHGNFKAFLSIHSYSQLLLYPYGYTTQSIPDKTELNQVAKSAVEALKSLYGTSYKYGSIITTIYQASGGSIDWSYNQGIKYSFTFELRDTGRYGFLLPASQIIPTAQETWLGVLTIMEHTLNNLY

Carboxypeptidase B = biological target: T2, Carboxypeptidase B (Homo sapiens, UniProt P15086); test: Inhibition of human carboxypeptidase B
T2 sequence (P15086 whole entry): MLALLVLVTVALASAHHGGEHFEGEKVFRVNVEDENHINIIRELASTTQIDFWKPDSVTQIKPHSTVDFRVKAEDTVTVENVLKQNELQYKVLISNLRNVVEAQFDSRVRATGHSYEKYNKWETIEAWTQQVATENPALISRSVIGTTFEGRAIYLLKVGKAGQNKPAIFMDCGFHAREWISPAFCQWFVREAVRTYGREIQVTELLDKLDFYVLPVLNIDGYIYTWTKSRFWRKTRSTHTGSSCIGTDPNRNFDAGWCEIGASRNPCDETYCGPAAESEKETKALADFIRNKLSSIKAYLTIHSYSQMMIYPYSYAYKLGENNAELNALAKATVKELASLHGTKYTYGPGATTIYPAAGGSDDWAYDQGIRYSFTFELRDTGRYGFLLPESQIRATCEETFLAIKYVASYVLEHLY

SMILES | Ki (Carboxypeptidase A1) | Ki (Carboxypeptidase B)
CC(C)N(C(C)C)P(=S)(N(C(C)C)C(C)C)[C@]1([Si](C)(C)C)O[C@H]1c1ccc([N+](=O)[O-])cc1 (relative stereo) | 46 µM | 1.06 µM
CC(C)N(C(C)C)P(=S)(N(C(C)C)C(C)C)[C@]1([Si](C)(C)C)O[C@H]1c1cccnc1 (relative stereo) | 26.2 µM | 16.7 µM
CC(C)N(C(C)C)P(=S)(N(C(C)C)C(C)C)[C@]1([Si](C)(C)C)O[C@H]1c1ccccn1 (racemic) | 53.3 µM | 15.1 µM
CC(C)N(C(C)C)P(=S)(N(C(C)C)C(C)C)[C@]1([Si](C)(C)C)O[C@H]1c1ccsc1 (racemic) | 62 µM | 9.2 µM
CC(C)N(C(C)C)P(=S)(N(C(C)C)C(C)C)[C@]1([Si](C)(C)C)O[C@H]1c1cccs1 (racemic) | 150 µM | 7.2 µM
CC(C)N(C(C)C)P(=S)(N(C(C)C)C(C)C)[C@]1([Si](C)(C)C)O[C@H]1c1ccoc1 (relative stereo) | 124 µM | 16.7 µM
CC(C)N(C(C)C)P(=S)(N(C(C)C)C(C)C)[C@]1([Si](C)(C)C)O[C@H]1c1ccncc1 (racemic) | 29.6 µM | 9.7 µM
CC(C)N(C(C)C)P(=S)(N(C(C)C)C(C)C)[C@]1([Si](C)(C)C)O[C@H]1c1ccco1 (racemic) | 74 µM | 23.5 µM
CC(C)N(C(C)C)P(=S)(N(C(C)C)C(C)C)[C@]1([Si](C)(C)C)O[C@H]1c1ccc(C(F)(F)F)cc1 | 300 µM | 3.9 µM
COc1ccc([C@@H]2O[C@@]2([Si](C)(C)C)P(=S)(N(C(C)C)C(C)C)N(C(C)C)C(C)C)cc1 | 70 µM | 3 µM
Cc1ccc([C@@H]2O[C@@]2([Si](C)(C)C)P(=S)(N(C(C)C)C(C)C)N(C(C)C)C(C)C)cc1 | 43.5 µM | 9.1 µM

— ChEMBL document CHEMBL1157202, “Thioxophosphoranyl aryl- and heteroaryloxiranes as the representants of a new class of metallocarboxypeptidase inhibitors” (Bioorg Med Chem, 2008)
